Assay results published in patent publication US9096615B2, “Bridged bicyclic amino thiazine dioxide compounds as inhibitors of beta-secretase and methods of use thereof” (AMGEN INC., priority 2013, dated 2015).
Where two headings read alike, the source gives them in different places.

Columns and labels:
BACE1 = BACE1 (Homo sapiens, UniProt P56817); assay: In vitro enzymatic BACE FRET assay; format: biochemical
Experimental: In Vitro Enzymatic BACE FRET (Fluorescence Resonance Energy Transfer) Assay
Enzyme Assay Data in the Example Table I
The assay buffer used in this screen is 0.05 M acetate, pH 4.2, 10% DMSO final, 100 uM genapol (which is a nonionic detergent, below its Critical Micelle Concentration). The Beta Secretase enzyme (0.2 nM) is pre-incubated for one hour with inhibitors, typically in about 1 uL of DMSO according to a serial dilution, are added thereto. This assay is effectively started by the addition of FRET substrate (50 nM) and the combination is incubated for one hour. The FRET assay is terminated with by addition of Tris buffer, which raises the pH to neutrality, and the fluorescence is determined. The FRET substrate is a peptide with commercially available fluorophore and quencher, on opposite sides of the BACE cleavage site. Proteolytic cleavage of the FRET substrate releases quenching of fluorescence (excitation 488 nm and […]).

Cathepsin D (Cat D) = molecular target: T1, Cathepsin D (Cat D) (Homo sapiens, UniProt P07339); assay: In vitro enzymatic Cathepsin D (Cat D) FRET assay; format: biochemical; details: read-out: CatD IC50
T1 construct: made in house; host or cells: CHO cells
T1 sequence (P07339 65-412, species assumed): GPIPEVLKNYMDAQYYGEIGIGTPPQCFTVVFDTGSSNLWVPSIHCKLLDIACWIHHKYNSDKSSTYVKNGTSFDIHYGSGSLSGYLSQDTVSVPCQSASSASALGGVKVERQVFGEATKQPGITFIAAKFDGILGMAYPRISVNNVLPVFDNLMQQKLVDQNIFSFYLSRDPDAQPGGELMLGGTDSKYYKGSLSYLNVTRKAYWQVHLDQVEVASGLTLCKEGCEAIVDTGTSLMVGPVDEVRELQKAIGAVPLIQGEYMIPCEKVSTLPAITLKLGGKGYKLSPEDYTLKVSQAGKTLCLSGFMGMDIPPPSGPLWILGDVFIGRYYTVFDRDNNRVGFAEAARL
Experimental: In Vitro Enzymatic Cathepsin D (Cat D) FRET (Fluorescence Resonance Energy Transfer) Assay
Recombinant Cat D was expressed in CHO cells. The assay buffer for CathepsinD is 0.05 M citrate pH 3.5, 10% DMSO final, 5 mM CHAPS. The Cat D enzyme (9 nM) is pre-incubated for one hour with inhibitors, typically in about 1 uL of DMSO according to a serial dilution, is added thereto. The assays are effectively started by the addition of different FRET substrates (20 nM for Cat D) and the combination is incubated for one hour. The FRET assay is terminated with by addition of Tris buffer, which raises the pH to neutrality, and the fluorescence is determined. The FRET substrate is a peptide with commercially available fluorophore and quencher, on opposite sides of the BACE cleavage site. The Cat D substrate peptide sequence is based on sequence #1 of Table 1 from Gulnik et al. FEBS Letters v413 p 379-384 1997. Proteolytic cleavage of the FRET substrate releases quenching of fluorescence (Cat D excitation 500 nm and emission 580 nm). […]
Where available, the in-vitro Cat D FRET assay data for each of the Examples, conducted by the first procedure, is provided in Tables 1 and 3. For example, the compound of example 28 has a Cat D IC50 value of >400 uM.

[1] = system: Aβ40 in conditioned medium of cells stably expressing Amyloid Precursor Protein (APP); assay: In vitro BACE cell-based assay (HEK cell assay, Aβ40 sandwich ELISA); details: Homo sapiens, HEK293
Experimental: In Vitro BACE Cell-Based Assay
The cell-based assay measures inhibition or reduction of Aβ40 in conditioned medium of test compound treated cells expressing amyloid precursor protein.
Cells stably expressing Amyloid Precursor Protein (APP) were plated at a density of 40K cells/well in 96 well plates (Costar). The cells were cultivated for 24 hours at 37° C. and 5% CO2 in DMEM supplemented with 10% FBS. The test compounds were then added to cells in 10-point dose response concentrations with the starting concentration being either 100 μM or 10 μM. The compounds were diluted from stock solutions in DMSO and the final DMSO concentration of the test compounds on cells was 0.1%. After 24 h of incubation with the test compounds the supernatant conditioned media was collected and the Aβ 40 levels were determined using a sandwich ELISA. The IC50 of the compound was calculated from the percent of control or percent inhibition of Aβ 40 as a function of the concentration of the test compound.
The sandwich ELISA to detect Aβ 40 was performed in 96 well microtiter plates, which were pre-treated with goat anti-rabbit IgG (Pierce). The capture and detecting antibody pair that were used to detect Aβ 40 from cell supernatants were affinity purified pAb40 (Biosource) and biotinylated 6E10 (Signet Labs Inc.), respectively. The optimal concentration for the pAb40 antibody was 3 μg/ml in Superblock/TBS (Pierce) that was supplemented with 0.05% Tween 20 (Sigma). Optimal concentration for the detection antibody 6E10-biotinylated was 0.5 μg/ml in Superblock/TBS (Pierce) that had been supplemented with 2% normal goat serum and 2% normal mouse serum.
Cellular supernatants were incubated with the capture antibody for 3 h at 4° C., followed by 3 wash steps in TBS-tween (0.05%). The detecting antibody incubation was for 2 h at 4° C., again followed by the wash steps as described previously. The final readout of the ELISA is Time-Resolved Fluorescence (counts per minute) using Delfia reagents Streptavidin-Europium and Enhancement solutions (Perkin Elmer) and the Victor 2 multilabel counter (Perkin Elmer).

[2] = read-out: BACE1 FRET assay IC50
[3] = Aβ40, 24 h incubation, read-out: HEK cell assay IC50
[4] = average IC50, read-out: BACE1 Enzyme assay IC50
[5] = average IC50, read-out: BACE1 cell assay IC50

BACE1, sequence (P56817 46-501, species assumed): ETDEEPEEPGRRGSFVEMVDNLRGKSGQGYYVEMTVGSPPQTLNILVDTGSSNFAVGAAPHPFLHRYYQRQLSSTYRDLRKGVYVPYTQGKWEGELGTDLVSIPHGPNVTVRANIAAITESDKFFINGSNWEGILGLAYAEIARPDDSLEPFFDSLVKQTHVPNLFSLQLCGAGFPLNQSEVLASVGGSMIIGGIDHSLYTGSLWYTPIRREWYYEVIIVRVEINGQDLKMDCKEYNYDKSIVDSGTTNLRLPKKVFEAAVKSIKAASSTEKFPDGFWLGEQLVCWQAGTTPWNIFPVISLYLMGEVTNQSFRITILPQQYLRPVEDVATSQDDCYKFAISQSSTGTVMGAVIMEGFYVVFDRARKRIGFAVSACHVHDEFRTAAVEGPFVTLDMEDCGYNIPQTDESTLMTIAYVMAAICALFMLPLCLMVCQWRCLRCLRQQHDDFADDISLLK

Row | IC50 (BACE1; [2]) | IC50 (Cathepsin D (Cat D)) | IC50 [1, 3] | IC50 (BACE1; [4]) | IC50 (Cathepsin D (Cat D); average IC50, first procedure) | IC50 [1, 5] | Compound
1 | 8.46 µM | 1540 µM | > 15.6 µM | – | – | – | Cc1cc(Cl)cnc1C(=O)Nc1ccc(F)c([C@@]2(C)N=C(N)[C@H]3CC[C@@H]2S3(=O)=O)c1 [Example 33, N-(3-((1S,2R,5R)-4-amino-2-methyl-8,8-dioxido-8-thia-3-azabicyclo[3.2.1]oct-3-en-2-yl)-4-fluorophenyl)-5-chloro-3-methyl-2-pyridinecarboxamide]
2 | 4.54 µM | 4310 µM | 2.03 µM | – | – | – | Cc1cc(Cl)cnc1C(=O)Nc1ccc(F)c([C@]2(C)N=C(N)[C@]3(C)CC[C@H]2S3(=O)=O)c1 [Example 34, N-(3-((1R,2S,5S)-4-amino-2,5-dimethyl-8,8-dioxido-8-thia-3-azabicyclo[3.2.1]oct-3-en-2-yl)-4-fluorophenyl)-5-chloro-3-methyl-2-pyridinecarboxamide]
3 | 0.002 µM | 5490 µM | 0.006 µM | – | – | – | COc1cnc2c(Nc3ccc(F)c([C@@]4(C)N=C(N)[C@@]5(C)CC[C@@H]4S5(=O)=O)c3)ncc(F)c2c1 [Example 36, N-(3-((1S,2R,5R)-4-amino-2,5-dimethyl-8,8-dioxido-8-thia-3-azabicyclo[3.2.1]oct-3-en-2-yl)-4-fluorophenyl)-5-fluoro-3-methoxy-1,7-naphthyridin-8-amine]
4 | 0.004 µM | 1170 µM | 0.001 µM | – | – | – | COc1cnc(C(=O)Nc2ccc(F)c([C@@]3(C)N=C(N)[C@@]4(C)CC[C@@H]3S4(=O)=O)c2)cn1 [Example 37, N-(3-((1S,2R,5R)-4-amino-2,5-dimethyl-8,8-dioxido-8-thia-3-azabicyclo[3.2.1]oct-3-en-2-yl)-4-fluorophenyl)-5-methoxy-2-pyrazinecarboxamide]
5 | – | – | – | 0.001 µM | 191 µM | 0.009 µM | C[C@]1(c2cc(Nc3ncc(F)c4cc(O)cnc34)ccc2F)N=C(N)[C@@]2(C)CC[C@@H]1S2(=O)=O [Example 39, (1R,4R,5S)-2-amino-4-(2-fluoro-5-((5-fluoro-3-hydroxy-1,7-naphthyridin-8-yl)amino)phenyl)-1,4-dimethyl-8-thia-3-azabicyclo[3.2.1]oct-2-ene 8,8-dioxide]
6 | – | – | – | 0.011 µM | 54.1 µM | 0.004 µM | Cc1cc(C(F)(F)F)cnc1C(=O)Nc1ccc(F)c([C@@]2(C)N=C(N)[C@@]3(C)CC[C@]2(C)S3(=O)=O)c1 [Example 48, N-(3-((1S,2R,5R)-4-amino-1,2,5-trimethyl-8,8-dioxido-8-thia-3-azabicyclo[3.2.1]oct-3-en-2-yl)-4-fluorophenyl)-3-methyl-5-(trifluoromethyl)-2-pyridinecarboxamide]
7 | – | – | – | 0.011 µM | 66.6 µM | 0.004 µM | Cc1cc(C(F)(F)F)cnc1C(=O)Nc1ccc(F)c([C@@]2(C)N=C(N)[C@]3(C)CC[C@@]2(C)S3(=O)=O)c1 [Example 49, N-(3-((1R,2R,5S)-4-amino-1,2,5-trimethyl-8,8-dioxido-8-thia-3-azabicyclo[3.2.1]oct-3-en-2-yl)-4-fluorophenyl)-3-methyl-5-(trifluoromethyl)-2-pyridinecarboxamide]
8 | – | – | – | 0.004 µM | 12 µM | 0.28 µM | C[C@]12CC[C@](C)(C(N)=N[C@]1(C)c1cc(Nc3ncc(F)c4cc(Cl)cnc34)ccc1F)S2(=O)=O [Example 50, N-(3-((1S,2R,5R)-4-amino-1,2,5-trimethyl-8,8-dioxido-8-thia-3-azabicyclo[3.2.1]oct-3-en-2-yl)-4-fluorophenyl)-3-chloro-5-fluoro-1,7-naphthyridin-8-amine]
9 | – | – | – | 0.011 µM | 21.5 µM | 0.381 µM | C[C@]12CC[C@](C)([C@@](C)(c3cc(Nc4ncc(F)c5cc(Cl)cnc45)ccc3F)N=C1N)S2(=O)=O [Example 51, N-(3-((1R,2R,5S)-4-amino-1,2,5-trimethyl-8,8-dioxido-8-thia-3-azabicyclo[3.2.1]oct-3-en-2-yl)-4-fluorophenyl)-3-chloro-5-fluoro-1,7-naphthyridin-8-amine]
10 | – | – | – | 0.001 µM | 470 µM | 0.005 µM | C[C@]1(c2cc(NC(=O)c3ccc(C#CC4CC4)cn3)ccc2F)N=C(N)[C@@]2(C)CC[C@@H]1S2(=O)=O [Example 64, N-(3-((1S,2R,5R)-4-amino-2,5-dimethyl-8,8-dioxido-8-thia-3-azabicyclo[3.2.1]oct-3-en-2-yl)-4-fluorophenyl)-5-(cyclopropylethynyl)-2-pyridinecarboxamide]
11 | – | – | – | 0.007 µM | > 400 µM | 0.016 µM | C[C@]12CC[C@H]([C@@](C)(c3cc(NC(=O)c4ccc(C#CC5CC5)cn4)ccc3F)N=C1N)S2(=O)=O [Example 65, N-(3-((1R,2R,5S)-4-amino-2,5-dimethyl-8,8-dioxido-8-thia-3-azabicyclo[3.2.1]oct-3-en-2-yl)-4-fluorophenyl)-5-(cyclopropylethynyl)-2-pyridinecarboxamide]
12 | – | – | – | 0.07 µM | > 400 µM | 0.018 µM | COc1cnc(C(=O)Nc2ccc(F)c([C@@]3(C)N=C(N)[C@]4(C)CC[C@H]3S4(=O)=O)c2)cn1 [Example 66, N-(3-((1R,2R,5S)-4-amino-2,5-dimethyl-8,8-dioxido-8-thia-3-azabicyclo[3.2.1]oct-3-en-2-yl)-4-fluorophenyl)-5-methoxy-2-pyrazinecarboxamide]
13 | – | – | – | 0.156 µM | 99.3 µM | 0.522 µM | C[C@]12CC[C@H]([C@@](C)(c3cc(Nc4nccc5nc(OCC6CC6)cnc45)ccc3F)N=C1N)S2(=O)=O [Example 67, N-(3-((1R,2R,5S)-4-amino-2,5-dimethyl-8,8-dioxido-8-thia-3-azabicyclo[3.2.1]oct-3-en-2-yl)-4-fluorophenyl)-2-(cyclopropylmethoxy)pyrido[3,4-b]pyrazin-5-amine]
14 | – | – | – | 0.005 µM | > 400 µM | 0.033 µM | C[C@]1(c2cc(Nc3nccc4nc(OCC5CC5)cnc34)ccc2F)N=C(N)[C@@]2(C)CC[C@@H]1S2(=O)=O [Example 68, N-(3-((1S,2R,5R)-4-amino-2,5-dimethyl-8,8-dioxido-8-thia-3-azabicyclo[3.2.1]oct-3-en-2-yl)-4-fluorophenyl)-2-(cyclopropylmethoxy)pyrido[3,4-b]pyrazin-5-amine]
15 | – | – | – | 0.024 µM | > 400 µM | 0.111 µM | Cc1cc(Cl)cnc1C(=O)Nc1ccc(F)c([C@@]2(CF)N=C(N)[C@]3(C)CC[C@H]2S3(=O)=O)c1 [Example 72, N-(3-((1R,2S,5S)-4-amino-2-(fluoromethyl)-5-methyl-8,8-dioxido-8-thia-3-azabicyclo[3.2.1]oct-3-en-2-yl)-4-fluorophenyl)-5-chloro-3-methyl-2-pyridinecarboxamide]
16 | – | – | – | 0.097 µM | > 400 µM | 0.095 µM | COc1cnc(C(=O)Nc2ccc(F)c([C@@]3(CF)N=C(N)[C@]4(C)CC[C@H]3S4(=O)=O)c2)cn1 [Example 75, N-(3-((1R,2S,5S)-4-amino-2-(fluoromethyl)-5-methyl-8,8-dioxido-8-thia-3-azabicyclo[3.2.1]oct-3-en-2-yl)-4-fluorophenyl)-5-methoxy-2-pyrazinecarboxamide]
